# Results: the SangsterLogP compilation
# Settings: pH 2.0
row,SMILES,logD
1,CCN(CC)S(=O)(=O)c1ccc(C(=O)N2CCNC(=O)[C@H]2CC(=O)OC)cc1,1.14
2,CC[C@@H](NS(=O)(=O)c1ccc(C)cc1)C(=O)Oc1ccc2c3c(c(=O)oc2c1)CCCC3,3.08
3,O=S(=O)(/C=C/C=C/Sc1ccccc1)c1ccccc1,4.03

# Same assay, conditions: pH 5.0
row,SMILES,logD
1,CCOC(=O)C1=C(C)NC(=S)N[C@@H]1c1ccc(OCc2ccc(Cl)cc2)c(OCC)c1,5.31
2,CCCCN1C(=O)c2ccc(C(=O)OCC(=O)N[C@H](C)C(C)C)cc2C1=O,3.62
3,C[C@@H](NC(=O)C1CCN(C(=O)c2ccc(F)cc2)CC1)c1ccccc1,3.48
4,CC[C@]1(C)NC(=S)N2N1C(=S)N[C@@]2(C)CC,2.44
5,COC(=O)[C@H](CCSC)NC(=O)c1cc2c(n(-c3ccccc3)c1=O)CC(C)(C)CC2=O,3.97
6,CC(C)(C)C(=O)Nc1ccc(NC(=O)C(C)(C)C)cc1,2.79
7,COc1ccccc1NC(=O)C1=C(C)NC(SCC(=O)Nc2ccc(C)c(Cl)c2)=C(C#N)[C@@H]1c1ccco1,6.27
8,COC(=O)c1ccc(N(C(=O)C(F)(F)F)[C@@H]2C=CS(=O)(=O)C2)cc1,2.05
9,COc1cc(C#N)ccc1OC(=O)/C=C/c1cccc(F)c1,4.46
10,CCCC1=C(C(=O)OCC)[C@H](c2ccc3c(c2)OCO3)NC(=O)N1,3.59
11,COC(=O)c1c(NC(=O)Cn2nc(C)c([N+](=O)[O-])c2C)sc2c1CC[C@H](C(C)(C)C)C2,6.53
12,O=C(c1nn2c(c1Br)N[C@H](c1cccs1)C[C@H]2C(F)(F)F)N1CCCC1,4.47
13,CC(=O)c1ccc(NC(=O)CNC(=O)CNC(=O)[C@@H]2O[C@@H]3OC(C)(C)O[C@@H]3[C@H]3OC(C)(C)O[C@H]32)cc1,3.39
14,COc1ccc([C@@H]2CCCC[C@H]2O)cc1,2.85
15,CC1(C)CC(=O)C2=C(C1)N(c1c(F)cccc1F)C(N)=C(C#N)[C@@H]2c1cccc(Cl)c1,5.04
16,CN1C(=CC(=O)COC(=O)C(c2ccccc2)c2ccccc2)C(C)(C)c2ccccc21,6.27
17,O=C1C[C@@H](c2c(F)cccc2Cl)c2cc3c(cc2N1)OCCO3,3.96
18,CC1=NN(C(=O)c2ccccc2Cl)[C@](O)(c2ccc(Cl)cc2)C1,3.73
19,N#CC1=C(N)C(C#N)(C#N)[C@@H](c2ccccc2Cl)[C@@H]2CSCC=C12,4.5
20,COc1ccc([C@H]2[C@H](C(=O)Nc3ccc(F)cc3F)c3cc(OC)c(OC)cc3C(=O)N2C)cc1OC,3.66
21,COc1ccc(C(=O)/C=C/Nc2ccc(Cl)c(C(F)(F)F)c2)cc1OC,5.31
22,O=C1[C@H]2OC[C@H](O2)[C@H]2[C@@H]1[C@@H]1C=C[C@H]2C1,1.48
23,FC(F)Oc1ccc(NC(=S)NC[C@@H]2CCCO2)cc1Cl,3.74
24,O=C1[C@@H](c2cccc(Br)c2)N(CCC2=CCCCC2)C(=O)CN1C1CCCCC1,5.6
25,CC(C)[C@H]1O[C@H]2CCCC[C@H]2C2=CCCC[C@H]21,5.87

row,SMILES,logD
1,O=C(/C=C/c1ccc2c(c1)OCO2)NCCCCNC(=O)/C=C/c1ccc2c(c1)OCO2,4.59
2,COc1cc([C@H]2NC(=O)NC(C)=C2C(=O)OC(C)C)ccc1OC(F)F,3.75
3,Cc1cc(Cl)ccc1O[C@@H](C)C(=O)NC1CCCCCC1,5.45
4,COc1ccc([C@@H]2[C@H]3C(=O)N(c4sc5c(c4C#N)CCCC5)C(=O)[C@@H]3ON2c2ccccc2C)cc1,5.83
5,O=C1CC[C@H]2CCCC[C@@]2(O)O1,1.16
6,CC1=C(C)C[C@@H]2C(=O)N(c3cccc(Br)c3)C(=O)[C@H]2C1,3.93
7,COc1ccccc1/C=N/n1c(C)cc(C)c(C#N)c1=O,3.08
8,C[C@H](NC(=O)C1CC1)c1ccccc1,1.85
9,CC[C@H](C)NC(=O)NC(C(F)(F)F)C(F)(F)F,2.84
10,CCOC(=O)c1c(NC(=O)[C@@H]2C[C@H]3CC[C@@H]2C3)sc(C(=O)N(CC)CC)c1C,5.05
11,CCOc1cc([C@H]2[C@@H]3CN(C(=O)OC(C)(C)C)CC=C3C(C#N)=C(N)C2(C#N)C#N)ccc1OC(C)C,5.83
12,O=C(c1cccc(COCC(F)(F)C(F)F)c1)N1CC[C@@H](C(F)(F)F)n2nccc21,4.27
13,C#CCOc1ccc(C2C3=C(CC(C)(C)CC3=O)OC3=C2C(=O)CC(C)(C)C3)cc1OCC,4.93
14,CCOC(=O)C1=C(C)OC(N)=C(C#N)[C@H]1c1cccc(I)c1,4.48
15,O=C(CN1C(=O)c2ccccc2S1(=O)=O)Nc1ccc(S(=O)(=O)N2CCCCCC2)cc1,4.73
16,C[C@H]1C[C@H](NC(=S)NCc2csc3ccccc23)CC(C)(C)C1,6.21
17,C=CCN1C(=S)N(c2ccc(CC)cc2)[C@H]2CS(=O)(=O)C[C@@H]21,2.86
18,CCNC(=O)/C(=C/c1cn(-c2ccccc2)nc1-c1cccs1)NC(=O)c1ccccc1,4.64
19,CN(C)C(=O)[C@H]1OC(C)(C)O[C@@H]1C(=O)N(C)C,1.49
20,COc1cc2c(cc1OC)[C@@]1(C)N(CC2)C(=O)OC12CCCCC2,3.47
21,COC(=O)[C@H]1OC(c2ccccc2)O[C@H]1C(=O)OC (stereo partly drawn),2.49
22,Cc1c(N[C@@H](NC(=O)c2cccc([N+](=O)[O-])c2)C(Cl)(Cl)Cl)c(=O)n(-c2ccccc2)n1C,3.99
23,COCCCNC(=S)N1[C@H](C)CCC[C@H]1C,2.8
24,O=C1/C(=C/c2ccsc2)SC(=S)N1c1cccc(C(F)(F)F)c1,5.8

# Same assay, conditions: pH 6.5
row,SMILES,logD
1,Cc1ccc2[nH]c3nc(N/N=C/C=C/c4ccco4)nnc3c2c1,2.18
2,O=C(c1ccc(Cl)cc1)N(Cc1ccc(Cl)c(Cl)c1)N1C(=O)[C@@H]2CCCC[C@H]2C1=O,5.51
3,NC(=O)C(C(=O)/C=C/c1ccc(Cl)cc1)=C1SCS1,3.64
4,Cc1ccc(CN2C(=O)/C(=C/[C@@H]3CC=CCC3)SC2=S)cc1,6.26
5,COc1cccc(/C=C/C(=O)OCC(=O)c2cc(C)n(-c3cc(C)on3)c2C)c1,5.2
6,COC[C@H](C)NC(=O)CCl,0.61
7,O=C(CN1C(=O)/C(=C2\SC(=S)N(Cc3ccco3)C2=O)c2ccccc21)Nc1ccc(F)cc1,6.36
8,COc1cc(/C=C(\NC(=O)c2ccccc2)C(=O)Nc2cccc(CO)c2)ccc1OC(C)=O,4.04
9,CCN(C(=O)CN1C(=O)[C@H]2CCCC[C@H]2C1=O)c1nnc(-c2ccc(Cl)cc2)s1,4.91
10,O=C([C@H]1CCCO1)N1CCN(C(=S)Nc2ccc(Oc3ccccc3)cc2)CC1,4.18
11,Cc1ccc(NC(=O)COC(=O)/C(=C/c2cccs2)c2cccs2)c(C)c1,3.83
12,Cc1cc2c(cc1C)N[C@@H](c1cc3c(cc1Cl)OCO3)C1=C(CC(C)(C)CC1=O)N2,4.38

# Same assay, conditions: pH 7.3
row,SMILES,logD
1,O=C(c1cccc(S(=O)(=O)N2CCOCC2)c1)N1CCN(c2cccc(Cl)c2)CC1,4.34
2,O=C1C(=O)N(OCc2ccc(Br)cc2)[C@H]2CCCC[C@@H]2N1OCc1ccc(Br)cc1,5.49
3,O=C1C[C@@H](n2nc(-c3ccccc3)n(-c3ccccc3)c2=S)[C@@H]2CO[C@H]1O2,3.65
4,CC(C)[C@@H](C(=O)Nc1nc(-c2ccc(S(=O)(=O)N3CCOCC3)cc2)cs1)N1C(=O)c2ccccc2C1=O,5.32
5,Cc1cc(C)n(-c2ccc(-n3cccc3/C=C(\C#N)S(C)(=O)=O)cc2)n1,4.25

# Same assay, conditions: pH 8.0
row,SMILES,logD
1,OC[C@H]1CCCN(c2ncnc3scc(-c4ccccc4)c23)C1,3.9
2,Cc1sc2ncn(CC(=O)N[C@@H]3CCC[C@@H](C)[C@H]3C)c(=O)c2c1C,4.34
3,CCc1cccc(C)c1N(C(=O)Cn1c([C@@H](C)O)nc2ccccc21)[C@@H](C)COC,4.48

# Same assay, conditions: pH 10.0
row,SMILES,logD
1,CC/N=C1\S/C(=C\c2cn(CC(=O)Nc3cccc(C)c3)c3ccccc23)C(=O)N1CC,5.8
2,CCO/C(O)=C/c1nc2nonc2nc1O,1.61
3,CCOC(=O)[C@H]1N=C(C2=C(O)c3ccccc3C2=O)[C@@H]2C(=O)N(N(C)c3ncc(C(F)(F)F)cc3Cl)C(=O)[C@@H]21,4.38
4,CCOCCOC(=O)[C@H](C)n1cnc2sc3c(c2c1=O)CC[C@H](C)C3,4.25
5,COC(=O)C1=C(C)N=C(C)C(C(=O)OC)[C@@H]1c1cccc(Cl)c1 (stereo partly drawn),4.22
6,COc1ccc([C@@H]2C(C(=O)OCCOC(C)C)=C(C)NC3=C2C(=O)C[C@H](c2cccs2)C3)cc1OC,4.45
7,CCCCSC1=C(C#N)[C@H](c2cccc([N+](=O)[O-])c2)C(C(C)=O)=C(C)N1,4.44
8,Cc1ccc(Cl)c(OCc2ccc(-c3nc4c5c[nH]nc5ncn4n3)o2)c1,4.4
9,C[C@H]1C[C@H](C)CN(C(=O)CSc2nnc(-c3ccccc3)n2C)C1,3.68
10,Cc1nn(C)cc1-c1cc(C(F)(F)F)n2nc(C(=O)N3C[C@@H](C)O[C@@H](C)C3)cc2n1,4.11
11,CC(=O)/N=c1/sc2nc3ccccc3nc2n1N(C(C)=O)C(C)=O,1.1
12,CCOC(=O)c1c(CC(C)C)csc1/N=C/c1c(C)nn(-c2ccccc2)c1O,5.16
13,O=[N+]([O-])c1ccccc1/C=N/c1ccc(/N=C/c2ccccc2[N+](=O)[O-])cc1,2.95

# Same assay, conditions: pH 10.5
row,SMILES,logD
1,COc1ccc(N2C(=O)C[C@@H](Sc3nc(C)cc(C)n3)C2=O)cc1OC,2.95
2,Cc1ccc([C@@H](O)C#CC(O)(c2ccccc2)c2ccccc2)o1,3.53
3,CC1(C)CC(=O)C2=C(C1)OC(N)=C(C#N)[C@H]2c1c2ccccc2cc2ccccc12,4.99
4,CCOC(=O)C1CCN(C(=O)c2ccc(Cl)c(/N=C3/N[C@@H]4CS(=O)(=O)C[C@@H]4S3)c2)CC1,2.96
5,COCCOC(=O)C1=C(C)NC2=C(C(=O)CC(c3cccc(OC)c3)C2)C1c1coc2ccc(C)cc2c1=O (stereo not drawn),5.23
6,O=C(c1ccccc1)N1CCCC[C@@H](Sc2nnc3ccccn23)C1=O,3.14
7,CC(C)=CCCC1=NN(C=O)[C@@](C)(CCC=C(C)C)C1,5.02
8,Cc1cccc(-n2c(S[C@@H](C)C(N)=O)nnc2-c2cccc(S(=O)(=O)N(C)C)c2)c1,3.81
9,COc1ccc([C@H]2C(C#N)=C(N)N(c3ccccc3C(F)(F)F)C3=C2C(=O)CCC3)cc1CSc1ccccn1,5.45
10,N#CC1=C(N)OC2=NN=C(c3cccs3)[C@@H]2[C@@H]1C1CCCCC1,4.64
11,C[C@H](NC(=O)CSc1ncnc2c1cnn2-c1ccccc1)c1ccccc1,4.73
12,CC(=O)C1=C(C)NC(SCC(=O)c2ccc(Cl)cc2Cl)=C(C#N)[C@@H]1c1cccs1,5.25
13,COc1cccc(C2=NN=C3OC(N)=C(C#N)[C@H](c4cc(OC)c(OC)cc4Br)[C@@H]32)c1,4.52
